We go through 16 molecules from PMC6691587, “New CXCR1/CXCR2 inhibitors represent an effective treatment for kidney or head and neck cancers sensitive or refractory to reference treatments” (Theranostics, 2019).

The structures appear in SMILES notation. pIC50: −log10 of the molar value. Some results are limits rather than exact numbers.

What all share (assay type): cell-based, human
One test relates to CAL27. Briefly: XTT cell viability assay, CAL27 HNSCC cells. The conditions noted are these: Homo sapiens, CAL-27; XTT assay, 48 h; SD 10%; mean of three experiments; read-out: IC50 27 (HNSCC). The method, then:
(§1) Fifty microliters of sodium 3′-[1-phenylaminocarbonyl)-3,4-tetrazolium]-bis(4-methoxy-6-nitro) benzene sulfonic acid hydrate (XTT) reagent was added to each well. The assay is based on the cleavage of the yellow tetrazolium salt XTT to form an orange formazan dye by metabolically active cells. This bio-reduction occurs in viable cells only and is related to NAD(P)H production through glycolysis. Therefore, the amount of formazan dye measured at 490 nm directly correlated with the number of metabolically active cells reflecting cell proliferation and viability. Each assay was performed in quadruplicate.
(Formazan colour is commonly taken as a measure of viable cells.)

The next test deals with CAL33. Briefly: XTT cell viability assay, CAL33 HNSCC cells. The conditions noted are these: Homo sapiens, CAL-33; XTT assay, 48 h; SD 10%; mean of three experiments; read-out: IC50 33 (HNSCC). On the procedure:
as §1

In a further test the test system is A498. Briefly: XTT cell viability assay, A498 RCC cells. The conditions noted are these: Homo sapiens, A498; XTT assay, 48 h; SD 10%; mean of three experiments; read-out: IC50 498 (Kidney RCC). The method, then:
as §1

The next test relates to RCC4. Briefly: XTT cell viability assay, RCC4 RCC cells. The conditions noted are these: Homo sapiens, RCC4, 48 h, SD 10%, mean of three experiments, read-out: IC50 R4 (Kidney RCC). The method, then:
as §1

The next test deals with 786-O. As to the kind of experiment: XTT cell viability assay, 786-O RCC cells. As to conditions: Homo sapiens, 786-0; XTT assay, 48 h; SD 10%; mean of three experiments; read-out: IC50 786 (Kidney RCC). On the procedure: as §1
The next test has as its system MDA-MD-231. As to the kind of experiment: XTT cell viability assay, breast cancer cells. As to conditions: Homo sapiens, 48 h, SD 10%, mean of three experiments. On the procedure:
as §1

A further test relates to OCI-AML2. Briefly: XTT cell viability assay, OCI-AML2 AML cells. As to conditions: Homo sapiens, OCI-AML2, 48 h, SD 10%, mean of three experiments, read-out: IC50 L2 (AML). On the procedure: as §1
Another test has as its system OCI-AML3. As to the kind of experiment: XTT cell viability assay, OCI-AML3 AML cells. The conditions noted are these: Homo sapiens, OCI-AML-3, 48 h, SD 10%, mean of three experiments, read-out: IC50 L3 (AML). The method, then: as §1
The next test concerns Molm13. Briefly: XTT cell viability assay, Molm13 AML cells. As to conditions: Homo sapiens, MOLM-13, 48 h, SD 10%, mean of three experiments. The method, then: as §1
The subject of another test is Molm14. As to the kind of experiment: XTT cell viability assay, Molm14 AML cells. As to conditions: Homo sapiens, MOLM-14, 48 h, SD 10%, mean of three experiments. The method, then: as §1
A further test has as its system SKM1. As to the kind of experiment: XTT cell viability assay, SKM1 MDS cells. As to conditions: Homo sapiens, SKM-1, 48 h, SD 10%, mean of three experiments, read-out: IC50 SK (MDS). The method, then: as §1
The next test deals with K562. Briefly: XTT cell viability assay, K562 CML cells. The conditions noted are these: Homo sapiens, K562, 48 h, SD 10%, mean of three experiments. The method, then:
as §1

The pIC50 is −log10 of the IC50, conventionally taken in molar units. Regarding `Cc1ccc(NC(=O)Nc2ccccc2Cl)cc1` [C1], the negative-log IC50 (pIC50) in the test on CAL27, in the test with CAL33, in the test on A498, with RCC4, in the test on 786-O and in the test on MDA-MD-231 was less than 4.60 in each case. The pIC50 in the test on OCI-AML2, with OCI-AML3, with Molm13, in the test with Molm14, in the test with SKM1 and with K562 was less than 4.60 throughout.

On to `Cc1ccc(NC(=O)Nc2cccc(Cl)c2)cc1` [C2], for which the pIC50 with CAL27, in the test on CAL33, in the test on A498, with RCC4, in the test with 786-O and with MDA-MD-231 was less than 4.60 throughout. Also, the pIC50 in the test with OCI-AML2, in the test on OCI-AML3, with Molm13, in the test with Molm14, in the test with SKM1 and in the test on K562 was less than 4.60 in each case.

As to `Cc1ccc(NC(=O)Nc2ccc(Cl)cc2)cc1` [C3], the pIC50 in the test on CAL27, with CAL33, with A498, in the test with RCC4, in the test with 786-O and with MDA-MD-231 was less than 4.60 in each case. For the same molecule, the negative logarithm of the IC50 (pIC50) in the test with OCI-AML2, in the test on OCI-AML3, in the test on Molm13, with Molm14, in the test on SKM1 and with K562 was less than 4.60 throughout.

With `O=C(Nc1ccccc1Cl)Nc1ccc(Cl)cc1Cl` [C4], the pIC50 in the test on CAL27, in the test on CAL33, in the test with A498, in the test with RCC4, with 786-O and in the test on MDA-MD-231 was less than 4.60 each time. Also, the pIC50 in the test with OCI-AML2, with OCI-AML3, in the test on Molm13, in the test on Molm14, in the test with SKM1 and in the test with K562 was less than 4.60 in each case.

For the molecule `O=C(Nc1cccc(Cl)c1)Nc1ccc(Cl)cc1Cl` [C5], the pIC50 with CAL27 is 4.82; in the test with CAL33 it was 4.60; in the test on A498 it was 4.66; with RCC4, 4.70; in the test with 786-O it was 4.66; in the test on MDA-MD-231, less than 4.60. The pIC50 with OCI-AML2 is 4.66; with OCI-AML3, 4.70; with Molm13, 4.70; with Molm14, 4.60; in the test with SKM1, 4.66; with K562 it was 4.70.

As to `O=C(Nc1ccc(Cl)cc1)Nc1ccc(Cl)cc1Cl` [C6], the negative-log IC50 (pIC50) with CAL27 is 4.60; in the test with CAL33 it was less than 4.60; in the test with A498, 4.66; in the test with RCC4, less than 4.60; in the test on 786-O, less than 4.60; in the test on MDA-MD-231, less than 4.60. The pIC50 in the test on OCI-AML2 is 4.60; with OCI-AML3 it was 4.66; in the test with Molm13 it was 4.66; in the test with Molm14, less than 4.60; in the test on SKM1, less than 4.60; with K562, 4.82.

For the molecule `Cc1ccc(NC(=S)Nc2ccccc2)cc1` [C7], the pIC50 in the test with CAL27, in the test on CAL33, in the test on A498, in the test on RCC4, in the test with 786-O and with MDA-MD-231 was less than 4.60 throughout. Besides, the pIC50 with OCI-AML2, with OCI-AML3, with Molm13, in the test on Molm14, in the test on SKM1 and with K562 was less than 4.60 throughout.

For the molecule `S=C(Nc1ccccc1)Nc1ccc(Cl)cc1Cl` [C8], the negative logarithm of the IC50 (pIC50) in the test with CAL27, in the test with CAL33, with A498, in the test on RCC4, with 786-O and with MDA-MD-231 was less than 4.60 in each case. Besides, the pIC50 with OCI-AML2, with OCI-AML3, with Molm13, in the test on Molm14, in the test on SKM1 and in the test on K562 was less than 4.60 in each case.

Take `O=C(Nc1ccc(Cl)cc1)Nc1ccc(Cl)cc1` [C10]: the pIC50 in the test with CAL27, in the test on CAL33, in the test on A498, in the test with RCC4, with 786-O and with MDA-MD-231 was less than 4.60 throughout. For the same molecule, the pIC50 with OCI-AML2, with OCI-AML3, with Molm13, with Molm14, in the test on SKM1 and with K562 was less than 4.60 in each case.

Turning to `O=C(Nc1cccc(Cl)c1)Nc1ccccc1O` [C11], the pIC50 in the test on CAL27, in the test on CAL33, in the test on A498, in the test with RCC4, with 786-O and in the test with MDA-MD-231 was less than 4.60 in each case. The negative-log IC50 (pIC50) in the test on OCI-AML2, with OCI-AML3, in the test on Molm13, in the test on Molm14, in the test with SKM1 and in the test on K562 was less than 4.60 in each case.

Regarding `O=C(Nc1ccccc1)Nc1nc2ccccc2[nH]1` [C13], the pIC50 in the test with CAL27 was 5.00; with CAL33, 5.00; with A498 it was 5.00; in the test with RCC4, 4.60; with 786-O, 4.70; with MDA-MD-231, 4.92. Besides, the pIC50 in the test with OCI-AML2 is 4.74; with OCI-AML3, 4.60; with Molm13 it was 4.60; with Molm14, 4.70; in the test on SKM1, 4.60; in the test on K562, 5.00.

For the molecule `O=C(Nc1nc2ccccc2[nH]1)Nc1ccccc1Cl` [C14], the pIC50 in the test on CAL27, in the test on CAL33, with A498, in the test with RCC4, with 786-O and in the test on MDA-MD-231 was less than 4.60 throughout. In addition, the pIC50 in the test on OCI-AML2, in the test with OCI-AML3, in the test with Molm13, in the test on Molm14, in the test on SKM1 and in the test with K562 was less than 4.60 in each case.

With `O=C(Nc1cccc(Cl)c1)Nc1nc2ccccc2[nH]1` [C15], the pIC50 in the test on CAL27, with CAL33, in the test with A498, in the test with RCC4, in the test on 786-O and in the test with MDA-MD-231 was less than 4.60 in each case. Also, the pIC50 in the test with OCI-AML2, in the test with OCI-AML3, with Molm13, with Molm14, in the test with SKM1 and in the test with K562 was less than 4.60 each time.

For the molecule `COc1ccc(NC(=O)Nc2nc3ccccc3[nH]2)cc1` [C17], the pIC50 in the test with CAL27, in the test with CAL33, in the test with A498, in the test with RCC4, with 786-O and in the test with MDA-MD-231 was less than 4.60 in each case. Besides, the pIC50 with OCI-AML2, in the test with OCI-AML3, in the test with Molm13, in the test with Molm14, in the test with SKM1 and in the test with K562 was less than 4.60 in each case.

On to `O=C(Nc1ccccc1)Nc1nc2ccccc2s1` [C20], for which the pIC50 in the test with CAL27, with CAL33, with A498, in the test on RCC4, with 786-O and with MDA-MD-231 was less than 4.60 each time. The pIC50 in the test with OCI-AML2, with OCI-AML3, in the test on Molm13, in the test with Molm14, in the test on SKM1 and in the test on K562 was less than 4.60 throughout.

`O=C(Nc1nc2ccccc2s1)Nc1ccccc1Cl` [C21]: the pIC50 in the test with CAL27 was less than 4.60; in the test on CAL33, less than 4.60; in the test with A498 it was less than 4.60; in the test on RCC4, 4.60; in the test on 786-O, less than 4.60; in the test on MDA-MD-231, less than 4.60. Further, the pIC50 with OCI-AML2 is 5.00; in the test with OCI-AML3 it was less than 4.60; in the test on Molm13, less than 4.60; in the test with Molm14, less than 4.60; in the test on SKM1, less than 4.60; in the test on K562 it was less than 4.60.
